Source: ChEMBL document CHEMBL1201862, “PubChem BioAssay data set” (2004)
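Assay format: 96-well plates, 48-hour exposure. Abbreviation: GI50, concentration required for 50% inhibition of growth.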 Calls of active or inactive are those of the source. Rule as the data show it: active = GI50 up to about 1.1 µM and inactive = higher.

Assays:
Assay in all cases: NCI tumour cell line growth inhibition, 48 h
786-0 = test system: 786-0
CCRF-CEM = test system: CCRF-CEM
HOP-62 = test system: HOP-62
HT-29 = test system: HT-29
KM12 = test system: KM12
LOX IMVI = test system: LOX IMVI
NCI-H226 = test system: NCI-H226
NCI-H460 = test system: NCI-H460
OVCAR-5 = test system: OVCAR-5
SF-268 = test system: SF-268
SF-295 = test system: SF-295
SN12C = test system: SN12C
SNB-19 = test system: SNB-19
U-251 = test system: U-251
UO-31 = test system: UO-31
HCT-15 = test system: HCT-15
SR = test system: SR

SMILES	GI50 (786-0)	GI50 (CCRF-CEM)	GI50 (HOP-62)	GI50 (HT-29)	GI50 (KM12)	GI50 (LOX IMVI)	GI50 (NCI-H226)	GI50 (NCI-H460)	GI50 (OVCAR-5)	GI50 (SF-268)	GI50 (SF-295)	GI50 (SN12C)	GI50 (SNB-19)	GI50 (U-251)	GI50 (UO-31)	GI50 (HCT-15) [µM]	GI50 (SR)
NC(=S)N/N=C(/CC(=O)c1ccc([N+](=O)[O-])cc1)C(=O)Nc1ncc([N+](=O)[O-])s1	> 100 µM (inactive)	82.4 µM (inactive)	> 100 µM (inactive)	> 100 µM (inactive)	> 100 µM (inactive)	61.7 µM (inactive)	> 100 µM (inactive)	> 100 µM (inactive)	> 100 µM (inactive)	> 100 µM (inactive)	> 100 µM (inactive)	> 100 µM (inactive)	> 100 µM (inactive)	> 100 µM (inactive)	> 100 µM (inactive)		
C[N+]1=c2c3cccc4cccc(c(=O)n2CC1)c43	25.8 µM (inactive)	11.6 µM (inactive)	22 µM (inactive)	16.8 µM (inactive)	18.3 µM (inactive)	5.81 µM (inactive)	13.1 µM (inactive)	11.5 µM (inactive)	15.5 µM (inactive)	12.3 µM (inactive)	21.3 µM (inactive)	18.1 µM (inactive)		28.6 µM (inactive)	12.3 µM (inactive)	22	2.77 µM (inactive)
O=C(O)Cc1cc(=O)[nH]c2c1C(=O)CCC2	> 100 µM (inactive)	> 100 µM (inactive)		> 100 µM (inactive)	> 100 µM (inactive)		> 100 µM (inactive)	> 100 µM (inactive)	> 100 µM (inactive)	> 100 µM (inactive)	> 100 µM (inactive)	> 100 µM (inactive)	> 100 µM (inactive)	> 100 µM (inactive)	> 100 µM (inactive)	> 100	> 100 µM (inactive)
C[P+]1(Cc2ccccc2)CCCC1	> 100 µM (inactive)	> 100 µM (inactive)	> 100 µM (inactive)	> 100 µM (inactive)	> 100 µM (inactive)	> 100 µM (inactive)	> 100 µM (inactive)	> 100 µM (inactive)	> 100 µM (inactive)		> 100 µM (inactive)	> 100 µM (inactive)	> 100 µM (inactive)	> 100 µM (inactive)	> 100 µM (inactive)	> 100	> 100 µM (inactive)
O=C(O)c1cc(=O)c2c([nH]c3ccccc32)s1	> 100 µM (inactive)	> 100 µM (inactive)	> 100 µM (inactive)		> 100 µM (inactive)			> 100 µM (inactive)	> 100 µM (inactive)	> 100 µM (inactive)	> 100 µM (inactive)	> 100 µM (inactive)	> 100 µM (inactive)		> 100 µM (inactive)	> 100	
COc1ccc(/C=C(\Cl)c2ccc(OC)cc2)cc1	> 100 µM (inactive)	> 100 µM (inactive)	> 100 µM (inactive)		> 100 µM (inactive)	> 100 µM (inactive)	> 100 µM (inactive)	> 100 µM (inactive)	> 100 µM (inactive)	> 100 µM (inactive)		> 100 µM (inactive)	> 100 µM (inactive)	> 100 µM (inactive)	> 100 µM (inactive)		> 100 µM (inactive)
CC(=O)C1C(=O)NC(=O)C1=O (configuration not stated)	> 100 µM (inactive)		> 100 µM (inactive)	> 100 µM (inactive)	> 100 µM (inactive)	> 100 µM (inactive)	> 100 µM (inactive)	> 100 µM (inactive)	> 100 µM (inactive)	> 100 µM (inactive)	> 100 µM (inactive)	> 100 µM (inactive)	> 100 µM (inactive)	> 100 µM (inactive)	> 100 µM (inactive)	> 100	
CC(C(=O)Oc1ccc2ccccc2c1-c1c(O)ccc2ccccc12)c1ccccc1 (configuration not stated)	14.8 µM (inactive)	16.3 µM (inactive)	15.5 µM (inactive)	14.8 µM (inactive)	11.4 µM (inactive)		10.1 µM (inactive)	13.7 µM (inactive)	16.9 µM (inactive)	> 10 µM (inactive)	12.7 µM (inactive)	14.7 µM (inactive)	14.7 µM (inactive)	15.1 µM (inactive)	1.37 µM (inactive)	12.5	
CC(C)N(C(=O)C1(C)CC1)C(C)C	> 100 µM (inactive)	> 100 µM (inactive)	> 100 µM (inactive)	> 100 µM (inactive)	> 100 µM (inactive)		> 100 µM (inactive)		> 100 µM (inactive)	> 100 µM (inactive)	> 100 µM (inactive)	> 100 µM (inactive)	> 100 µM (inactive)	> 100 µM (inactive)	> 100 µM (inactive)	> 100	
